The series concerns CCRIS mutagenicity, Ames/micronucleus/aberration tests. Briefly: CCRIS mutagenicity studies.
The mark [1] stands for this setting: Test System: AMES SALMONELLA TYPHIMURIUM, Strain/Indicator: TA98, Metabolic Activation: NONE, Method: STANDARD PLATE.
Where [2] appears, read: Test System: AMES SALMONELLA TYPHIMURIUM, Strain/Indicator: TA1537, Metabolic Activation: NONE, Method: STANDARD PLATE.
The mark [3] stands for this setting: Test System: AMES SALMONELLA TYPHIMURIUM, Strain/Indicator: TA1537, Metabolic Activation: RAT, LIVER, S-9, AROCLOR 1254, Method: STANDARD PLATE.
Setting [4] is: Test System: AMES SALMONELLA TYPHIMURIUM, Strain/Indicator: TA1538, Metabolic Activation: NONE, Method: STANDARD PLATE.

Calls of active or inactive are those of the source. No rule for the calls is given here.

Turning to `CN(C)c1ccc(C(=O)c2ccc(N(C)C)cc2)cc1`, the mutagenic call was “inactive; negative” (Test System: AMES SALMONELLA TYPHIMURIUM, Strain/Indicator: TA98, Metabolic Activation: MOUSE, LIVER, S-9, AROCLOR 1254, Method: STANDARD PLATE); “inactive; negative” (Test System: AMES SALMONELLA TYPHIMURIUM, Strain/Indicator: TA98, Metabolic Activation: MOUSE, LIVER, S-9, Method: STANDARD PLATE); “inactive; negative” under setting [1]; “inactive; negative” (Test System: AMES SALMONELLA TYPHIMURIUM, Strain/Indicator: TA98, Metabolic Activation: RAT, LIVER, S-9, Method: STANDARD PLATE); “inactive; negative” (Test System: AMES SALMONELLA TYPHIMURIUM, Strain/Indicator: TA100, Metabolic Activation: HAMSTER, LIVER, S-9, AROCLOR 1254, Method: STANDARD PLATE); “inactive; negative” (Test System: AMES SALMONELLA TYPHIMURIUM, Strain/Indicator: TA100, Metabolic Activation: HAMSTER, LIVER, S-9, Method: STANDARD PLATE). Moreover, the mutagenic call was “inactive; negative” (Test System: AMES SALMONELLA TYPHIMURIUM, Strain/Indicator: TA100, Metabolic Activation: MOUSE, LIVER, S-9, Method: STANDARD PLATE); “inactive; negative” (Test System: AMES SALMONELLA TYPHIMURIUM, Strain/Indicator: TA100, Metabolic Activation: NONE, Method: STANDARD PLATE); “inactive; negative” (Test System: AMES SALMONELLA TYPHIMURIUM, Strain/Indicator: TA100, Metabolic Activation: RAT, LIVER, S-9, AROCLOR 1254, Method: STANDARD PLATE); “inactive; negative” (Test System: AMES SALMONELLA TYPHIMURIUM, Strain/Indicator: TA100, Metabolic Activation: RAT, LIVER, S-9, Method: STANDARD PLATE); “inactive; negative” (Test System: AMES SALMONELLA TYPHIMURIUM, Strain/Indicator: TA1535, Metabolic Activation: HAMSTER, LIVER, S-9, AROCLOR 1254, Method: STANDARD PLATE); “inactive; negative” (Test System: AMES SALMONELLA TYPHIMURIUM, Strain/Indicator: TA1535, Metabolic Activation: HAMSTER, LIVER, S-9, Method: STANDARD PLATE). In addition, the mutagenic call (Test System: AMES SALMONELLA TYPHIMURIUM, Strain/Indicator: TA1535, Metabolic Activation: MOUSE, LIVER, S-9, AROCLOR 1254, Method: STANDARD PLATE) was “inactive; negative”; the mutagenic call (Test System: AMES SALMONELLA TYPHIMURIUM, Strain/Indicator: TA1535, Metabolic Activation: MOUSE, LIVER, S-9, Method: STANDARD PLATE) is “inactive; negative”; the mutagenic call (Test System: AMES SALMONELLA TYPHIMURIUM, Strain/Indicator: TA1535, Metabolic Activation: NONE, Method: STANDARD PLATE) was “inactive; negative”; the mutagenic call (Test System: AMES SALMONELLA TYPHIMURIUM, Strain/Indicator: TA1535, Metabolic Activation: RAT, LIVER, S-9, AROCLOR 1254, Method: STANDARD PLATE) is “inactive; negative”; the mutagenic call (Test System: AMES SALMONELLA TYPHIMURIUM, Strain/Indicator: TA1535, Metabolic Activation: RAT, LIVER, S-9, Method: STANDARD PLATE) was “inactive; negative”; the mutagenic call (Test System: AMES SALMONELLA TYPHIMURIUM, Strain/Indicator: TA1537, Metabolic Activation: HAMSTER, LIVER, S-9, AROCLOR 1254, Method: STANDARD PLATE) was “inactive; negative”. Moreover, the mutagenic call runs as follows: (Test System: AMES SALMONELLA TYPHIMURIUM, Strain/Indicator: TA1537, Metabolic Activation: MOUSE, LIVER, S-9, AROCLOR 1254, Method: STANDARD PLATE) “inactive; negative”; (Test System: AMES SALMONELLA TYPHIMURIUM, Strain/Indicator: TA1537, Metabolic Activation: MOUSE, LIVER, S-9, Method: STANDARD PLATE) “inactive; negative”; under setting [2], “inactive; negative”; under setting [3], “inactive; negative”; (Test System: AMES SALMONELLA TYPHIMURIUM, Strain/Indicator: TA1537, Metabolic Activation: RAT, LIVER, S-9, Method: STANDARD PLATE) “inactive; negative”; (Test System: AMES SALMONELLA TYPHIMURIUM, Strain/Indicator: TA1538, Metabolic Activation: MOUSE, LIVER, S-9, Method: STANDARD PLATE) “inactive; negative”. In addition, the mutagenic call by setting is: under setting [4], “inactive; negative”; (Test System: AMES SALMONELLA TYPHIMURIUM, Strain/Indicator: TA1538, Metabolic Activation: RAT, LIVER, S-9, Method: STANDARD PLATE) “inactive; negative”; (Test System: E. COLI, Strain/Indicator: WP2 UVRA, Metabolic Activation: HAMSTER, LIVER, S-9, AROCLOR 1254, Method: STANDARD PLATE) “inactive; negative”; (Test System: E. COLI, Strain/Indicator: WP2 UVRA, Metabolic Activation: HAMSTER, LIVER, S-9, Method: STANDARD PLATE) “inactive; negative”; (Test System: E. COLI, Strain/Indicator: WP2 UVRA, Metabolic Activation: MOUSE, LIVER, S-9, AROCLOR 1254, Method: STANDARD PLATE) “inactive; negative”; (Test System: E. COLI, Strain/Indicator: WP2 UVRA, Metabolic Activation: MOUSE, LIVER, S-9, Method: STANDARD PLATE) “inactive; negative”. In addition, the mutagenic call runs as follows: (Test System: E. COLI, Strain/Indicator: WP2 UVRA, Metabolic Activation: NONE, Method: STANDARD PLATE) “inactive; negative”; (Test System: E. COLI, Strain/Indicator: WP2 UVRA, Metabolic Activation: RAT, LIVER, S-9, AROCLOR 1254, Method: STANDARD PLATE) “inactive; negative”; (Test System: E. COLI, Strain/Indicator: WP2 UVRA, Metabolic Activation: RAT, LIVER, S-9, Method: STANDARD PLATE) “inactive; negative”.
In the case of `C[n+]1c2cc(N)ccc2cc2ccc(N)cc21` (tested in a mixture with another compound), the mutagenic call is “inactive; negative” under setting [1]; “active; positive” (Test System: AMES SALMONELLA TYPHIMURIUM, Strain/Indicator: TA98, Metabolic Activation: RAT, LIVER, S-9, AROCLOR 1254, Method: STANDARD PLATE); “inactive; negative” under setting [2]; “active; positive” under setting [3]; “inactive; negative” under setting [4]; “active; positive” (Test System: AMES SALMONELLA TYPHIMURIUM, Strain/Indicator: TA1538, Metabolic Activation: RAT, LIVER, S-9, AROCLOR 1254, Method: STANDARD PLATE). In addition, for the setting “Test System: CHINESE HAMSTER OVARY, Strain/Indicator: CHO-K1-BH4 (HGPRT), Metabolic Activation: RAT, LIVER, S-9, AROCLOR, Method: SUSPENSION/PLATE”, the mutagenic call is “active; positive”.

Values taken from PubChem BioAssay AID1259407 (Chemical Carcinogenesis Research Information System (CCRIS), 2018).
